In US20170231966A1, “INHIBITION OF IL-2 PRODUCTION” (AYUMI PHARMACEUTICAL CORPORATION, priority 2013, published 2017):
Structures can show the parent of a compound that is named as a salt.

Test system: transcriptional activation of IL-2
Assay: IL-2 transcriptional activation Luciferase Assay (IL-2 Gene Promoter Reporter Vector) in A23187-stimulated Jurkat cells
Assay type: cell-based, human
Settings: for Action on A23187-accelerated transcriptional activation of IL-2 (in words) / Inhibiting ratio of IL-2 transcriptional activation / Inhibition ratio (transcriptional activation of IL-2), Table 2: A23187-stimulated Jurkat cells; for Luc activity value, No stimulation / Luc activity value, Stimulated by A23187: Jurkat cells, 24 hours, average ± standard deviation, n=3; for Luc activity value, No stimulation: no A23187, DMSO = 1; for Luc activity value, Stimulated by A23187: A23187 0.3 μM, unstimulated DMSO = 1

Q: Which “Action on A23187-accelerated transcriptional activation of IL-2 (in words)” value does the source give for `CCOCCN(CCCOc1ccc(OC)cc1C1Sc2cc(Cl)ccc2N1C(C)=O)C(C)C` (single isomer, unassigned; (+)) [Compound 2, (+)-3-acetyl-6-chloro-2-[2-(3-(N-(2-ethoxyethyl)-N-isopropylamino)propoxy)-5-methoxyphenyl]benzothiazoline (+O,O′-diacetyl-L-tartaric acid salt] here?
A: The value was “statistically significant inhibiting action”.

Q: What about the “Luc activity value, No stimulation” value (compound 0.3 μM) of the same compound?
A: The value was 0.8842 ± 0.1143.

Q: What about the “Luc activity value, Stimulated by A23187” value (compound 0.3 μM) of the same compound?
A: Its value is 81.9510 ± 30.4537.

Q: And the “Luc activity value, No stimulation” value (compound 1 μM)?
A: The value was 0.9410 ± 0.0598.

Q: What about the “Luc activity value, Stimulated by A23187” value (compound 1 μM) of the same compound?
A: Its value is 65.0761 ± 13.2402.

Q: What about the “Luc activity value, No stimulation” value (compound 10 μM) of the same compound?
A: Its value is 0.9469 ± 0.0928.

Q: And the “Luc activity value, Stimulated by A23187” value (compound 10 μM)?
A: The value was 27.5064 ± 29.2861.

Q: And the “Inhibiting ratio of IL-2 transcriptional activation” value (from here on “Inhibiting ratio”) (compound 0.3 μM)?
A: The value was 12%.

Q: What about the “Inhibiting ratio” value (compound 1 μM) of the same compound?
A: The value was 30%.

Q: What about the “Inhibiting ratio” value (compound 10 μM) of the same compound?
A: The value was 70%.

Q: How did the “Inhibition ratio (transcriptional activation of IL-2), Table 2” value (compound 10 μM) turn out when `CN(C(=O)C(c1ccccc1)c1ccccc1)[C@H](CN1CC[C@H](O)C1)c1ccccc1` [Asimadoline, asimadoline, reference compound] was run?
A: Its value is 19%.

Q: `COCCN(CCCOc1ccc(OC)cc1C1Sc2cc(Cl)ccc2N1C(C)=O)C(C)C` [Compound 5, (+)-3-acetyl-6-chloro-2-[2-(3-(N-isopropyl-N-(2-methoxyethyl)amino)propoxy)-5-methoxyphenyl]benzothiazoline (−)-O,O′-diacetyl-L-tartaric acid salt] was tested. Which “Action on A23187-accelerated transcriptional activation of IL-2 (in words)” value did it give?
A: The value was “inhibited transcriptional activation of IL-2”.

Q: And the “Inhibition ratio (transcriptional activation of IL-2), Table 2” value (compound 10 μM)?
A: Its value is 72%.

Q: What does the source list for `COc1ccc(OCCCN(CCO)C(C)C)c(C2Sc3cc(Cl)ccc3N2C(C)=O)c1.Cl` (single isomer, unassigned; (+)) [Compound 4, (+)-3-acetyl-6-chloro-2-[2-(3-(N-(2-hydroxyethyl)-N-isopropylamino)propoxy)-5-methoxyphenyl]benzothiazoline hydrochloride]?
A: Action on A23187-accelerated transcriptional activation of IL-2 (in words): inhibited transcriptional activation of IL-2; Inhibition ratio (transcriptional activation of IL-2), Table 2 (compound 10 μM): 38%

Q: Which results are given for `CCOCCN(CCCOc1ccc(OC)cc1C1Sc2cc(Cl)ccc2N1C(C)=O)C(C)C.Cl` (racemic) [Compound 3, (±)-3-acetyl-6-chloro-2-[2-(3-(N-(2-ethoxyethyl)-N-isopropylamino)propoxy)-5-methoxyphenyl]benzothiazoline hydrochloride]?
A: Action on A23187-accelerated transcriptional activation of IL-2 (in words): inhibited transcriptional activation of IL-2; Inhibition ratio (transcriptional activation of IL-2), Table 2 (compound 10 μM): 77%
